Columns and labels:
[1] = system: SH-SY5Y neuronal cells; experiment: In vitro anti-apoptosis assay (Caspase-Glo 3/7, staurosporine induced apoptosis); format: cell-based, human; settings: for anti-apoptotic effect: reduction of the staurosporine induced apoptosis: co-incubation with staurosporine
Procedure: Neuroprotection is attainable via the inhibition of apoptosis of affected neurons. The anti-apoptotic effect of tranilast and its derivatives can be assayed in vitro by measuring the caspase-3 and caspase-7 activities. These members of the cysteine aspartic acid-specific protease (caspase) family play key effector roles in apoptosis in mammalian cells. Cortical neurons have to be isolated and subsequently cultivated in a suitable culture medium. The cells have to be incubated with the test compound in the presence of an apoptotic substance such as staurosporine. Parallel approaches with staurosporine alone and sham treatment of the cells serve as […] controls. The assay allows evaluating whether the test compound can compensate either completely or partially for the apoptotic effect of staurosporine. This assay is suitable to assess the neuroprotective activity of tranilast and derivatives thereof, but also can be used to screen for other potential neuroprotective compounds. Preferably, such a screening can be used to test compounds which are already known to be suitable as a medicament in terms of its toxicology, bioavailability, solubility, stability etc.
The neuroprotective effect of compounds can be assayed in vitro by measuring caspase-3 and caspase-7 activities. These members of the cysteine aspartic acid-specific protease (caspase) family play a key effector role in apoptosis in mammalian cells.
The human neuroblastoma cell-line SH-SY5Y (American Type Culture Collection) maintained in DMEM with high glucose supplemented with 20% FBS was used for the apoptosis assay. Alternatively one can analyse the apoptosis of primary cortical neurons which can be isolated from E18 rats and subsequently cultivated in suitable culture medium. 2.5×10^4 SH-SY5Y cells were seeded in 96-well plates and stimulated 24 h later with tranilast or vehicle in the presence of the apoptosis inducing compound staurosporine (0.5 μM, Calbiochem). After 5 h incubation at 37° C., caspase-Glo 3/7 reagent (Promega) containing luciferase and luminogenic substrate was added to the cells. The cleavage of the substrate by caspase-3 and caspase-7 was detected 30 min later using a luminometer (Berthold Technologies, Mithras LB 940). The Luminescence which is proportional to the amount of caspase activity serves as a measure for the apoptosis of the treated neurons. Tranilast was tested in a range from 0.8 μM to 100 μM final concentration.
Analogously to Example 3, various derivatives of tranilast (N-(3′,4′-methylenedioxycinnamoyl)-anthranilic acid (FIG. 2a (ChemBridge Corporation)), 2-(3′,4′-dimethoxycinnamoylamino)-toluene (FIG. 2b (ChemBridge Corporation)), N-cinnamoyl-anthranilic acid (FIG. 2c (ChemBridge Corporation)), and 2-(3′,4′-dimethoxycinnamoylamino)-anisole (FIG. 2d (Ambinter SARL))) have been analysed for their anti-apoptotic activity. The SH-SY5Y cells have been incubated with these derivatives (1 μM) either alone or in the presence of staurosporine (0.5 μM). Incubation with staurosporine (0.5 μM) alone served as positive control and incubation with vehicle served as negative control. In the case of 3-(4′-chlorocinnamoylamino)-anisole (FIG. 2e (Sigma)) the SH-SY5Y cells have been incubated with this derivative (1 μM) either alone or in the presence of staurosporine […]. Accordingly, incubation with staurosporine […] alone served as positive control and incubation with vehicle served as negative control. The degree of apoptosis relative to the staurosporine control is shown in FIG. 4 a (vehicle (sham): 9% staurosporine (SP): 100%; tranilast: 8%; tranilast plus staurosporine: 75%; derivative A: 3%; derivative A plus staurosporine: 27%; derivative B: 7%; derivative B plus staurosporine: 79%; derivative C: 2%; derivative C plus staurosporine: 20%; derivative D: 7%; derivative D plus staurosporine: 80%) and FIG. 4 b (vehicle (sham): 13%; staurosporine: 100%; derivative E: 6%; derivative E plus staurosporine: 25%).

[2] = system: neural stem cells; experiment: In vitro differentiation assay on adult neuronal stem cells (beta-III-tubulin promoter dual luciferase reporter); format: cell-based, rat; settings: 48 hrs; concentration ranges within 0.01 to 100 μM; versus sham treated cells
Text: The neuroregenerative effect of the compounds according to the present invention can be assayed in vitro by measuring their stimulation of the differentiation of neuronal stem cells. Therefore, adult neuronal stem cells have to be isolated and subsequently cultivated in a suitable culture medium. After several passages in vitro the stem cells have to be co-transfected with a DNA construct coding for two discriminable reporter proteins one of them under the control of a constitutive promoter and the other under the control of a beta-III-tubulin promoter. The beta-III-tubulin promoter is induced during the process of neuronal stem cell differentiation; therefore the reporter protein under the control of this promoter serves as a marker for the stem cell differentiation in such an in vitro dual reporter assay (Schneider et al., J Clin Investigation 2005; 115:2083-2098). The person skilled in the art knows several suitable constitutive promoters such as the SV40-promoter, the TK-promoter, or the CMV-promoter. As discriminable reporter proteins for such a dual reporter assay one can use discriminable luciferases such as firefly luciferase and Renilla luciferase. The transfected cells have to be incubated with the test compound and with positive and negative controls for normalization and background correction. As a positive control compound one can use retinoic acid (Guan et al., Cell Tissue Res. 2001; 305:171-176; Jacobs et al., Proc. Natl. Acad. Sci. USA 2006; 103:3902-3907), a suitable negative control is the sham treatment of the cells. The neroregenerative activity of the test compound is determined as the ratio of the signal of the beta-III-tubulin promoter controlled reporter versus the signal of the constitutively expressed reporter and is expressed as fold from the control. This assay is suitable to assess the neuroregenerative activity of tranilast and derivatives thereof, but also can be used to screen for other potential neuroregenerative compounds. Preferably, such a screening can be used to test compounds which are already known to be suitable as a medicament in terms of its toxicology, bioavailability, solubility, stability etc.
Neural stem cells were isolated from the subventricular zone of 4 week-old male Wistar rats as described (Maurer et al, Proteome Sci. 2003; 1:4). Cells were cultivated in Neurobasal medium (Invitrogen) supplemented with B27 (Invitrogen), 2 mM L-glutamine, 100 units/ml penicillin, 100 units/ml streptomycin, 20 ng/ml […] growth factor (EGF), 20 ng/ml fibroblast growth factor-2 (FGF-2), and […] heparin. Once a week the neural stem cells were passaged and experiments were performed after 4 weeks in vitro. For DNA transfection, the cells were dissociated and plated on poly-L-ornithin/laminin-coated 96-well plates at a density of 50.000 cells/well. Cotransfection with the pGL3-p-βIII-tubulin vector (100 ng/well) and the pRL SV40 vector (100 ng/well) was carried out according to the FuGene6 Transfection protocol (Roche). The pRL SV40 vector (Promega) served as an internal control vector.
To amplify the class III β-tubulin gene promoter (fragment −450-+54), rat genomic DNA was used as a template for PCR (Dennis et al., Gene 2002; 294:269-277). The amplified fragment was inserted into the Mlu I/Xho I site of the pGL3-Basic firefly luciferase reporter vector (Promega) to generate the pGL3-p-βIII-tubulin experimental vector.
After overnight incubation, the plate was decanted and given in 8-fold replicates fresh medium containing tranilast (Sigma) or vehicle. As a positive control for in vitro differentiation, stem cells were treated by adding 1 μM retinoic acid (Sigma) to the medium missing the mitogens.
After 48 hrs, the cells were harvested to prepare the cellular extracts for luciferase assay following the directions of the manufacturer (Promega). […]

[3] = system: SH-SY5Y neuronal cells; experiment: In vitro viability assay (constitutive Renilla luciferase reporter); format: cell-based, human; settings: 0.8 μM to 50 μM, 5 h
Procedure: The viability assay allows for further assessment of test compounds regarding their effect on cells such as neurons. Therefore, a stably transfected cell line (e.g. SH-SY5Y cells) with a reporter construct (e.g. a luciferase construct) has to be incubated with the test compound and in parallel with positive and negative controls (e.g. staurosporine and sham, respectively). Subsequently, the signal generated by the reporter construct serves as a readout for the viability of the cells in the presence of the test compound. The assay enables the evaluation of potential neurotoxic effects of the test compound itself. […]
SH-SY5Y neuronal cells stably transfected with a Renilla luciferase construct under the SV40 promoter were seeded in 96-well plates at a density of 2.5×10^4 cells per well. […] The Renilla luciferase activity was measured 5 h later using a luminometer (Berthold Technologies, Mithras LB 940). […]
Analogously to Example 5, various derivatives of tranilast (N-(3′,4′-methylenedioxycinnamoyl)-anthranilic acid (FIG. 2a (ChemBridge Corporation)), 2-(3′,4′-dimethoxycinnamoylamino)-toluene (FIG. 2b (ChemBridge Corporation)), N-cinnamoyl-anthranilic acid (FIG. 2c (ChemBridge Corporation)), and 2-(3′,4′-dimethoxycinnamoylamino)-anisole (FIG. 2d (Ambinter SARL))) have been analysed for their effect on the viability of neuronal cells. […]

[4] = compound 1 μM alone, FIG. 4a (control staurosporine 0.5 μM)
[5] = compound 1 μM plus staurosporine 0.5 μM, FIG. 4a

COc1ccc(/C=C/C(=O)Nc2ccccc2C(=O)O)cc1OC [tranilast, 2-((3-(3,4-dimethoxyphenyl)-1-oxo-2-propenyl)amino)benzoic acid]
apoptosis (caspase-3/7 luminescence) relative to staurosporine ([1]; 0.8 μM tranilast plus 0.5 μM staurosporine, 5 h): 84%
apoptosis (caspase-3/7 luminescence) relative to staurosporine ([1]; 1.6 μM tranilast plus 0.5 μM staurosporine, 5 h): 74%
apoptosis (caspase-3/7 luminescence) relative to staurosporine ([1]; 3.1 μM tranilast plus 0.5 μM staurosporine, 5 h): 76%
apoptosis (caspase-3/7 luminescence) relative to staurosporine ([1]; 6.3 μM tranilast plus 0.5 μM staurosporine, 5 h): 74%
apoptosis (caspase-3/7 luminescence) relative to staurosporine ([1]; 12.5 μM tranilast plus 0.5 μM staurosporine, 5 h): 58%
apoptosis (caspase-3/7 luminescence) relative to staurosporine ([1]; 25 μM tranilast plus 0.5 μM staurosporine, 5 h): 46%
apoptosis (caspase-3/7 luminescence) relative to staurosporine ([1]; 50 μM tranilast plus 0.5 μM staurosporine, 5 h): 30%
apoptosis (caspase-3/7 luminescence) relative to staurosporine ([1]; 100 μM tranilast plus 0.5 μM staurosporine, 5 h): 15%
anti-apoptotic effect: reduction of the staurosporine induced apoptosis [1]: significant reduction of the staurosporine induced apoptosis
degree of apoptosis relative to the staurosporine control [1, 4]: 8%
degree of apoptosis relative to the staurosporine control [1, 5]: 75%
differentiation of neural stem cells to neurons (relative induction of the class III β-tubulin gene promoter controlled luciferase signal) [2]: significantly stimulates the differentiation of neural stem cells to neurons
effect on the viability of neuronal cells (Renilla luciferase activity) [3]: did not show any significant effect on the viability of the neuronal cells

O=C(C=Cc1ccccc1)Nc1ccccc1C(=O)O [derivative C, N-cinnamoyl-anthranilic acid]
degree of apoptosis relative to the staurosporine control [1, 4]: 2%
degree of apoptosis relative to the staurosporine control [1, 5]: 20%
differentiation of neural stem cells to neurons (relative induction of the class III β-tubulin gene promoter controlled luciferase signal) [2]: significantly stimulates the differentiation of neural stem cells to neurons in a dose dependent manner

O=C(C=Cc1ccc2c(c1)OCO2)Nc1ccccc1C(=O)O [derivative A, N-(3′,4′-methylenedioxycinnamoyl)-anthranilic acid]
degree of apoptosis relative to the staurosporine control [1, 4]: 3%
degree of apoptosis relative to the staurosporine control [1, 5]: 27%
differentiation of neural stem cells to neurons (relative induction of the class III β-tubulin gene promoter controlled luciferase signal) [2]: significantly stimulates the differentiation of neural stem cells to neurons in a dose dependent manner

COc1ccc(C=CC(=O)Nc2ccccc2C)cc1OC [derivative B, 2-(3′,4′-dimethoxycinnamoylamino)-toluene]
degree of apoptosis relative to the staurosporine control [1, 4]: 7%
degree of apoptosis relative to the staurosporine control [1, 5]: 79%
differentiation of neural stem cells to neurons (relative induction of the class III β-tubulin gene promoter controlled luciferase signal) [2]: significantly stimulates the differentiation of neural stem cells to neurons in a dose dependent manner

CN[C@@H]1C[C@H]2O[C@@](C)([C@@H]1OC)n1c3ccccc3c3c4c(c5c6ccccc6n2c5c31)C(=O)NC4 [staurosporine]
degree of apoptosis relative to the staurosporine control ([1]; staurosporine 0.1 μM alone (positive control, reference), FIG. 4b): 100%
apoptosis (caspase-3/7 luminescence) relative to staurosporine ([1]; staurosporine 0.5 μM alone (positive control, reference)): 100%

COc1cccc(NC(=O)C=Cc2ccc(Cl)cc2)c1 [derivative E, 3-(4′-chlorocinnamoylamino)-anisole]
anti-apoptotic effect: reduction of the staurosporine induced apoptosis [1]: significant reduction of the staurosporine induced apoptosis
degree of apoptosis relative to the staurosporine control ([1]; compound 1 μM alone, FIG. 4b (control staurosporine 0.1 μM)): 6%
degree of apoptosis relative to the staurosporine control ([1]; compound 1 μM plus staurosporine (1 μM printed, 0.1 μM elsewhere in the source), FIG. 4b): 25%
differentiation of neural stem cells to neurons (relative induction of the class III β-tubulin gene promoter controlled luciferase signal) [2]: significantly stimulates the differentiation of neural stem cells to neurons in a dose dependent manner

COc1ccccc1NC(=O)C=Cc1ccc(OC)c(OC)c1 [derivative D, 2-(3′,4′-dimethoxycinnamoylamino)-anisole]
degree of apoptosis relative to the staurosporine control [1, 4]: 7%
degree of apoptosis relative to the staurosporine control [1, 5]: 80%
differentiation of neural stem cells to neurons (relative induction of the class III β-tubulin gene promoter controlled luciferase signal) [2]: significantly stimulates the differentiation of neural stem cells to neurons in a dose dependent manner
